Data reported in ChEMBL document CHEMBL1156829 (Proc Natl Acad Sci U S A, 2008).

Key:
[1] = tested on: Plasmodium falciparum; assay: NOVARTIS: Inhibition of Plasmodium falciparum 3D7 (drug-susceptible) proliferation in erythrocyte-based infection assay; type: functional, organism-based; conditions: Plasmodium falciparum, 3D7
[2] = tested on: Plasmodium falciparum; assay: NOVARTIS: Inhibition of Plasmodium falciparum W2 (drug-resistant) proliferation in erythrocyte-based infection assay; type: functional, organism-based; conditions: Plasmodium falciparum, W2; read-out: EC50
[3] = NOVARTIS: Cytotoxicity against human hepatocellular carcinoma cell line (Huh7); type: toxicity, cell-based, Huh-7; conditions: Huh7 cells (hepatocellular carcinoma cell line)

SMILES	EC50 [1]	EC50 [2]	CC50 [3]
COc1ccc(CCN2CCC(NCc3cccc(N(C)C)c3)CC2)cc1	806 nM	1060 nM	> 10000 nM
CCOC(=O)c1c(NC(=O)CSc2nnc(CNC(=O)c3cccc(C)c3)n2Cc2ccccc2)sc2c1CCCC2	> 1090 nM	> 1460 nM	> 14000 nM
COc1cc(CNc2cc(OCCOc3ccc(Cl)cc3)cc(C(=O)NC3CCN(Cc4ccccc4)CC3)c2)ccc1OCc1ccccc1	902 nM	> 1250 nM	> 12100 nM
CCOC(=O)c1sc(NC(=O)CSc2nnc(CNC(=O)c3ccco3)n2-c2ccc(F)cc2)c(C(=O)OCC)c1C	> 1250 nM	> 1060 nM	> 10000 nM
O=S(=O)(c1ccccc1)N1CCN(CC2CNCCO2)CC1 (configuration not stated)	767 nM	332 nM	3220 nM
C=CCC1(Nc2ccccc2)CCCCC1	> 1250 nM	> 1050 nM	> 10000 nM
CCCCNc1cc(C)nc(NCc2ccccc2)n1	944 nM	1020 nM	> 10000 nM
O=C(Nc1nccs1)c1cc(-c2cccnc2)nc2ccc(Br)cc12	1080 nM	> 10400 nM	> 100000 nM
c1ccc2c(NCCc3c[nH]cn3)c3ccccc3nc2c1	1730 nM	2460 nM	23300 nM
CC(=NO)c1ccc2c(c1)C(C)(C)CCC2(C)C	3510 nM	3900 nM	37100 nM
COc1cc(C=NNc2nc3nonc3nc2Nc2ccc(Cl)cc2)ccc1O	> 1250 nM	1030 nM	> 10000 nM
C/C=C1/C[C@H]2[C@@H](OC)Nc3cc(O)c(OC)cc3C(=O)N2C1	1030 nM	875 nM	8490 nM
CCc1c(C)nc(SCC(=O)NNC(C)=O)nc1O	> 1250 nM	> 1030 nM	> 10000 nM
O=C(NCc1ccccc1)c1cnc(NCCCn2ccnc2)nc1NCC1CCCCC1	311 nM	1040 nM	> 10000 nM
O=C(CSc1nc2ccccc2[nH]1)Nc1ccc2c(c1)OCO2	> 1250 nM	> 1040 nM	> 10000 nM
Fc1ccccc1Nc1nc(NCc2ccccc2)c2ccccc2n1	463 nM	918 nM	8860 nM
CCN1CCN(C2CCN(Cc3cc4ccc(F)cc4n(CCSc4ccccc4)c3=O)CC2)CC1	715 nM	560 nM	5480 nM
CCCn1c(SCCNC(=O)NCC)nc(-c2ccccc2)c1-c1ccccc1	> 1400 nM	> 1030 nM	> 10000 nM
CN1CCN(C(c2ccco2)c2sc3ncnn3c2O)CC1 (configuration not stated)	> 1250 nM	1080 nM	> 10000 nM
CN(C)c1ccc(NC(=O)c2cccnc2C(=O)O)cc1	320 nM	841 nM	7840 nM
CCCCCN(C(=O)c1ccc(C)cc1)C(CC)c1nc2ccccc2c(=O)n1-c1ccccc1OC (configuration not stated)	893 nM	1070 nM	> 10000 nM
O=C(NCCCCNc1ccnc2cc(Cl)ccc12)c1ccco1	723 nM	1400 nM	> 13100 nM
COc1ccccc1N(CC(=O)N1CCCCC1)S(=O)(=O)c1ccccc1	> 1250 nM	> 1070 nM	> 10000 nM

SMILES	EC50 [1]	EC50 [2]	CC50 [3]
COc1cccc2cc(-c3csc(NC(=O)CCC(=O)NC4CCCC4)n3)c(=O)oc12	> 1250 nM	> 1070 nM	> 10000 nM
CCC(O)CN(c1ccccc1)c1ccccc1 (configuration not stated)	> 1250 nM	> 1020 nM	> 10000 nM
CCCCCCN(C(=O)Nc1cccc(C#N)c1)C(CC)c1nc2ccccc2c(=O)n1CCC(=O)OC (configuration not stated)	979 nM	1070 nM	> 10000 nM
Cc1ccc(CN2C[C@H](n3cnnn3)C[C@H]2C(=O)NCCc2cccc(Cl)c2)c(C)c1	1320 nM	1120 nM	> 10400 nM
C/C(=C\c1ccccc1)CN(C(=O)c1ccc(C(C)(C)C)cc1)C(C)C	217 nM	535 nM	> 5250 nM
O=C(C1CCN(c2cccc3c2C(=O)N(C2CC2)C3=O)CC1)N1CCC(O)(c2ccc(Cl)cc2)CC1	> 1250 nM	> 1020 nM	> 10000 nM
CCOc1ccc(-n2nc(C(=O)NCCCN(C)Cc3ccccc3)c3ccccc3c2=O)cc1	> 11200 nM	10300 nM	> 100000 nM
CCCCCN1/C(=C\C=C\c2n(CCCCC)c3cc(Cl)c(Cl)cc3[n+]2CC)N(CC)c2cc(Cl)c(Cl)cc21	> 1300 nM	> 1060 nM	> 10000 nM
CCCCCCN(C(=O)c1ccc(C(C)(C)C)cc1)C(CC)c1nc2ccccc2c(=O)n1-c1ccc(F)cc1 (configuration not stated)	795 nM	1020 nM	> 10000 nM
CCC(c1nc2ccccc2c(=O)n1-c1cccc(Cl)c1)N(CCc1ccccc1)C(=O)c1ccc(F)cc1 (configuration not stated)	267 nM	69 nM	656 nM
O=C1C(Cc2ccccc2)N=C2c3ccccc3N=C(SCc3ccc(Cl)cc3)N12 (configuration not stated)	> 1250 nM	> 1050 nM	> 10000 nM
COc1ccccc1Cn1c(SCc2ccc(Cl)cc2)nc2ccc(Br)cc2c1=O	> 1160 nM	> 1050 nM	> 10000 nM
CC(C)(C)c1ccc(Oc2ccc(N3C(=O)C4CC=CCC4C3=O)cc2)cc1 (configuration not stated)	> 1250 nM	> 1020 nM	> 10000 nM
CCCNC(=O)CCCCCSc1nc2ccccc2c(=O)n1-c1ccc(F)cc1	780 nM	> 1180 nM	> 11500 nM
Cc1oc2c(c1C(=O)N1CCCC1)C(=O)c1ccccc1C2=O	2370 nM	1050 nM	9860 nM
O=C(Nc1ccc(F)c(F)c1)c1ccccc1[N+](=O)[O-]	> 903 nM	1060 nM	> 10000 nM
Cc1ccc(-c2nc3cc(NC(=O)c4ccc(Cl)cc4Cl)ccc3o2)cc1	> 864 nM	> 1050 nM	> 10000 nM
Cc1ccc(-c2ccc(C#N)c(OCC(=O)NCCc3ccccc3)n2)c(C)c1	> 1250 nM	> 1060 nM	> 10000 nM
COc1cc(NC(=O)/C=C/c2ccccc2Cl)cc(OC)c1OC	862 nM	1060 nM	> 10000 nM
CCCCCc1ccc(-c2ccc(/C(C=[N+](C)C)=C\N(C)C)cc2)cc1	606 nM	1050 nM	> 10000 nM
CC(=O)Nc1ccccc1-c1nnn(CC(N)=O)n1	> 10500 nM	> 10400 nM	> 100000 nM
Cc1c2ccccc2c(-c2ccccc2)c2ccccc12	1230 nM	626 nM	6000 nM
CCCSc1nc(N)c(NC(=O)c2ccco2)c(=O)[nH]1	> 361 nM	> 1020 nM	> 10000 nM

SMILES	EC50 [1]	EC50 [2]	CC50 [3]
O=C1C(Sc2nnc[nH]2)=CC(=NS(=O)(=O)c2cccs2)c2ccccc21	1530 nM	707 nM	6910 nM
COC(=O)c1c(-c2c(Cl)cccc2Cl)noc1C=CNc1ccc(Cl)cc1	> 1790 nM	10500 nM	> 100000 nM
COc1ccccc1-n1c(/C=C/c2cc(Br)ccc2O)nc2ccccc2c1=O	> 1250 nM	> 1050 nM	> 10000 nM
c1ccc(-c2ccc(CNc3ccc4cn[nH]c4c3)cc2)cc1	> 1250 nM	1040 nM	> 10000 nM
COc1cc2nc(C3CCC3)n(NC(=O)c3cccc(F)c3)c(=O)c2cc1OC	> 1250 nM	> 1060 nM	> 10000 nM
CCCCNC(=O)c1ccc2c(c1)N=C(c1cccnc1)N(CCN1CCOCC1)C2	> 1250 nM	> 1060 nM	> 10400 nM
CCOC(=O)C1=C(C)N=c2sc(=Cc3ccc(I)o3)c(=O)n2C1c1ccccc1Cl (configuration not stated)	1330 nM	570 nM	> 5490 nM
COc1ccc(C2C(C(=O)Nc3cc(C)on3)c3ccccc3C(=O)N2C2CCCCC2)cc1 (configuration not stated)	895 nM	> 1030 nM	> 10000 nM
CCOc1cc(C(Nc2cc(C)ccn2)c2ccc3cccnc3c2O)ccc1OCc1ccccc1 (configuration not stated)	> 1340 nM	1030 nM	> 10000 nM
Cc1ccccc1NC(c1cccc(Cl)c1)c1nnnn1C1CCCCC1 (configuration not stated)	> 1720 nM	> 1070 nM	> 10000 nM
Cc1ccc2nc(-c3ccccc3)cc(C(=O)Nc3ccc(Cl)cc3)c2c1	> 1610 nM	1040 nM	> 10000 nM
CCOC(=O)c1cnc2c(C)c3[nH]c(C)c(C)c3cc2c1O	> 1310 nM	1070 nM	> 10000 nM
C=CCNC(=O)c1ccc2c(c1)N=C(/C=C/c1ccccc1)N(CCc1cccc(OC)c1)C2	1340 nM	1040 nM	> 10000 nM
COc1ccc(/C=C2\SC(=N)N(c3ccc4c(c3)OCO4)C2=O)cc1OC	> 1720 nM	> 1060 nM	> 10000 nM
COc1cc2c3cc1Oc1c(OC)c(OC)cc4c1C(Cc1ccc(O)c(c1)Oc1ccc(cc1)CC3N(C)CC2)N(C)CC4 (configuration not stated)	997 nM	1060 nM	> 10000 nM
Cc1cccc(NC(=O)Nc2cccnc2)c1NC(=O)Nc1cccnc1	> 1250 nM	> 1050 nM	> 10000 nM
CC(=O)Oc1ccc(C(=O)C(C(C)=O)c2ccccc2)c(OC(C)=O)c1 (configuration not stated)	> 1390 nM	> 1020 nM	> 10000 nM
CCC(/C=C1\Sc2ccc(OC)cc2N1CCCS(=O)(=O)O)=C\c1sc2ccc(OC)cc2[n+]1CCCS(=O)(=O)O	473 nM	1040 nM	10000 nM
COc1cccc(OC)c1C(=O)Nn1c(-c2cccc(C)c2)nc2ccccc2c1=O	> 1250 nM	> 1030 nM	> 10000 nM
CC(C)(C)C(/C=C/c1ccc(Cl)cc1Cl)n1nnnc1C1(Nc2ccc(Cl)cc2)CCCCC1 (configuration not stated)	> 1250 nM	> 1050 nM	> 10000 nM
O=[N+]([O-])c1cc([N+](=O)[O-])c2cccnc2c1Nc1cccc2cccnc12	8040 nM	6440 nM	59900 nM
CCN(CC)CCCC(C)NC(=O)CSc1nc2ccccc2c(=O)n1-c1cccc(Cl)c1 (configuration not stated)	> 1250 nM	> 1070 nM	> 10000 nM
N#Cc1c(NC(=O)COc2ccc(F)cc2F)sc2c1CCC2	> 1250 nM	> 1070 nM	> 10000 nM
